Assay results published in patent publication US6930118B2, “3-Oxadiazol-5-yl-1-aminoalkyl-1h-indole derivatives” (Amrad Operations Pty. Ltd., priority 2001, dated 2005).
pIC50: −log10 of the molar value. Where a name gives a salt, the structure may show the parent alone.

Tests used:
CB1 receptor [1] = target: T1, CB1 receptor (Rattus norvegicus, UniProt P20272); assay: Radioligand binding assay, rat cerebellum membranes
T1 construct: the cerebellum was dissected away from the rest of the brain, weighed and homogenised; from tissue; host or cells: Sprague Dawley rat cerebellum membranes
T1 sequence (P20272 whole entry): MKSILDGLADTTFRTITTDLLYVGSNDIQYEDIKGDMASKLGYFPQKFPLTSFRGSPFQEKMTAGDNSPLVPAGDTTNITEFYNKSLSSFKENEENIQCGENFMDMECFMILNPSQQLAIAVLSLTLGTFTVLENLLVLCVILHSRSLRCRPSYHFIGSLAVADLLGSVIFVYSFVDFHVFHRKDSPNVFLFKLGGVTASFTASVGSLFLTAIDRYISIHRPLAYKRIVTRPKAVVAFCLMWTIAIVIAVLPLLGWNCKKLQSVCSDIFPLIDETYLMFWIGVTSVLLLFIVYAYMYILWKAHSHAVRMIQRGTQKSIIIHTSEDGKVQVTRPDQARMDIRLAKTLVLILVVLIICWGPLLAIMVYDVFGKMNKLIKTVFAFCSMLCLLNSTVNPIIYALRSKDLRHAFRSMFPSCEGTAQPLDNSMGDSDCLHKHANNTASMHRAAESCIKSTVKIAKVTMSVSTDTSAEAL
Procedure: (§1) The affinity of compounds at cannabinoid receptors is routinely assessed using ligand binding assays known to those skilled in the art. Radioligand binding assays were conducted using rat cerebellum or rat spleen. The cerebellum of the rat is known to express predominantly, if not exclusively, the CB1 receptor subtype (20,21). Thus, binding constants obtained from these studies are characterised by a single affinity value, as only one receptor type is labelled. […] In contrast, biphasic binding curves in the spleen characterised by two affinity constants represent the profile of compounds showing selectivity for one receptor subtype over another. In order to determine the order of selectivity, the high and low affinity values obtained for these compounds in the spleen binding assays were compared to the single affinity estimates obtained for the cerebellum (CB1) assays.
Sprague Dawley rats of either sex (200-300 g) were killed by gassing with 80% CO2 in O2 and decapitation, and the entire brain excised rapidly and placed in ice-cold Tris-HCl buffer (Tris 50 mM, MgCl2 3 mM, EGTA 0.2 mM, pH to 7.4 with HCl). On ice, the cerebellum was dissected away from the rest of the brain, weighed and homogenised (PT-DA 1205/2EC Polytron Aggregate; Kinematica, Luzernerstrasse Switzland) in 10 volumes of ice-cold Tris-HCl buffer. The homogenate was then made up to 20 volumes and centrifuged (Model J2-M1, Beckman, Fullerton, Calif., U.S.A.) at […] for 15 min at 4° C.). Subsequently, the supernatant was discarded, the pellet resuspended in 20 volumes of buffer and centrifuged as before. The resulting pellet was then resuspended in 20 volumes of buffer and assayed for protein content using the method of Bradford (Bradford, 1976) in a Novaspec II spectrophotometer (Pharmacia Biotech; with bovine serum albumin (BSA; Hömosafe BSA, c/o ‘ScimaR’ Templestowe, Australia) as the standard. The homogenate was then recentrifuged and the final pellet resuspended in Tris-HCl buffer at a protein concentration of 5 mg/ml and stored in 500 μl aliquots at −80° C. until used in the binding assay.
(§2) Ligand binding assays were performed in polypropylene tubes in a total volume of 1 ml containing Tris-HCl buffer, a final concentration of 1 mg/ml BSA, and varying concentrations of drugs. Tubes contained 30 μg of membrane protein and incubation was started by the addition of 100 μl of either 0.5 nM [^3H]SR141716A or 0.2 nM [^3H]WIN 55,212-2. Experiments were carried out in triplicate at 30° C. for 90 min with non-specific binding being defined as radioligand binding in the presence of 1 μM unlabelled WIN 55,212-2. Incubations were terminated by rapid filtration with a M-24 Cell Harvester (Brandel; Gaithersburg, Md., U.S.A.) using ice-cold Tris-HCl buffer containing 0.5 mg/ml BSA. Filters (Wattman GF/B) were soaked for 2 h prior to filtering in a solution of Tris-HCl buffer containing 3 mg/ml BSA and 0.5% w/w polyethyleneimine (PEI). Filters were left to dry thoroughly before placement into scintillation vials with 5 ml of scintillation cocktail (Ultima Gold LSC-cocktail; Packard Bioscience, Meriden, Conn., U.S.A.) being added. Vials were left to stand overnight before the radioactivity was determined using a Model 1409 DSA Liquid Scintillation counter (EG&E Wallac, Gaithersburg, Md., U.S.A.).
(§3) The resulting radioligand binding curves were analyzed by nonlinear regression using the program PRISM 3.0 (GraphPad Software, San Diego, Calif.) in order to derive ligand affinity estimates for the cannabinoid receptor(s).

CB1 receptor [2] = target: T2, CB1 receptor (Mus musculus, UniProt P47746); assay: Mouse electrically-stimulated isolated vas deferens bioassay (MVD); type: cell-based; details: decrease of electrically evoked twitch force; for inhibition at 1 µM: read-out: CB1 (MVD) % inh at 1.0 μM
T2 construct: Mouse vasa deferentia were dissected with capsular connective tissue intact and set up in 20 ml organ baths; from tissue; host or cells: mouse (Swiss white) isolated vas deferens
T2 sequence (P47746 whole entry): as the sequence (P20272 whole entry) above, with E95D counted along it
Procedure: Functional activity of the compounds was assayed using the mouse electrically-stimulated vas deferens bioassay, a measure of CB1 receptor function (24,25). […] CB2 functionality may be investigated using assays known to those skilled in the art; for example those described in U.S. Pat. No. 6,013,648.
Swiss white mice (35-40 g) were killed by exposure to 80% CO2 in O2 and exsanguination. Mouse vasa deferentia were dissected with capsular connective tissue intact and set up in 20 ml organ baths at 37° C. in Mg^2+-free physiological salt solution. The upper (epididymal) end was attached to an isometric force transducer (Grass FTO3C) and the lower (prostatic) end tied to a fixed support between two parallel platinum field electrodes (5 mm apart, 5 mm long). The tissue was initially stretched by 0.5 g force and allowed to equilibrate 10 min. The tissues were stimulated (Grass S88 stimulator) to contract using trains of electrical field stimulation of 3 pulses (4 Hz), 0.5 ms duration, 100 V (80% maximal voltage) every 20 s for 10 min. This electrical stimulation period was applied before and after both antagonist and agonist addition. Output from the transducer amplifier was recorded on a flat bed recorder (Gould BS 272, Cleveland, Ohio, U.S.A.). All drugs were dissolved in dimethyl sulfoxide (DMSO; Sigma, St Louis, Mo., U.S.A.) and allowed to equilibrate with the tissue for 30 min before the responses to field stimulation were assessed. Drug effects were measured as the percentage decrease of the pre-drug twitch force.

CB2 receptor = target: T3, CB2 receptor (Rattus norvegicus, UniProt Q9QZN9); assay: Radioligand binding assay, rat spleen membranes
T3 sequence (Q9QZN9 1-343 limits assumed): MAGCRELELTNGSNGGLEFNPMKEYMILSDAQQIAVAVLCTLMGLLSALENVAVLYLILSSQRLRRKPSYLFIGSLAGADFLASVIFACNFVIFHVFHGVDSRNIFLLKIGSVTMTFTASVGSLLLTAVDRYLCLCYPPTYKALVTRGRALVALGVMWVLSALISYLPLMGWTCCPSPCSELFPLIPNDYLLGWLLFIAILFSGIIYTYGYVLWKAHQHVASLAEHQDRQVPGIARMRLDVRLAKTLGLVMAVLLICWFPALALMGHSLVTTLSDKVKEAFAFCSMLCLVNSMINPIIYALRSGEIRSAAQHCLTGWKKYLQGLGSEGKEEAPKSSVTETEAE
Procedure: as §1
Sprague Dawley rats (200-300 g) were killed by gassing with 80% CO2 in O2 and decapitation and the spleen excised rapidly and placed in ice-cold Tris-HCl buffer (Tris 50 mM, MgCl2 3 mM, EGTA 0.2 mM, pH 7.4). The spleen was weighed and diced using a scalpel before homogenisation in 10 volumes of Tris-HCl buffer. The homogenate was then made up to 20 volumes and centrifuged (12,600 g, 5 min, 4° C.), the supernatant was retained and centrifuged (23,800 g, 20 min, 4° C.). The pellet was resuspended in 10 volumes of buffer and assayed for protein content using the method of Bradford (Bradford, 1976) with BSA as the standard. The homogenate was then recentrifuged and the final pellet resuspended in Tris-HCl buffer at a protein concentration of 5 mg/ml and stored in 500 μl aliquots at −80° C. until used for the binding assay.
as §2, §3

**Q.** With `c1ccc(Cc2noc(-c3cn(CCN4CCOCC4)c4ccccc34)n2)cc1` [Compound 2, 3-(3-Benzyl-[1,2,4]-oxadiazol-5-yl)-1-[2-(morpholin-4-yl)ethyl]-1H-indole] as the compound, how does the pIC50 (CB1 receptor [1]) read?
**A.** The pIC50 was 6.00.

**Q.** And the inhibition at 1 µM (CB1 receptor [2])?
**A.** The inhibition at 1 µM was 96%.

**Q.** And the pIC50 (CB2 receptor)?
**A.** Its pIC50 is 6.00.

**Q.** For `CCOC(=O)CCn1cc(-c2nc(Cc3ccc4ccccc4c3)no2)c2ccccc21` [Compound 16, Ethyl 3-([3-(naphth-2-ylmethyl)-1,2,4-oxadiazol-5-yl]-1H-indol-1-yl)propanoate], which “CB1 (MVD) % inh at 1.0 μM” value (CB1 receptor [2]) is on record?
**A.** The value was 77%.

**Q.** With `c1csc(Cc2noc(-c3cn(CCN4CCOCC4)c4ccccc34)n2)c1` [Compound 4, 1-[2-(Morpholin-4-yl)ethyl]-3-(3-thien-2-ylmethyl-[1,2,4]oxadiazol-5-yl)-1H-indole] as the compound, how does the pIC50 (CB1 receptor [1]) read?
**A.** Its pIC50 is 7.00.

**Q.** What about the inhibition at 1 µM (CB1 receptor [2]) of the same compound?
**A.** The inhibition at 1 µM was 81%.

**Q.** For `c1ccc(Cc2noc(-c3cn(CCN4CCCCC4)c4ccccc34)n2)cc1` [Compound 5, 3-(3-Benzyl-[1,2,4]oxadiazol-5-yl)-1-[2-(piperidin-1-yl)ethyl]-1H-indole], which inhibition at 1 µM (CB1 receptor [2]) is on record?
**A.** The inhibition at 1 µM was 46%.

**Q.** Which results are given for `c1ccc(-c2noc(-c3cn(CCN4CCOCC4)c4ccccc34)n2)cc1` [Compound 3, 3-(3-Phenyl-[1,2,4]-oxadiazol-5-yl)-1-[2-(morpholin-4-yl)ethyl]-1H-indole]?
**A.** melting point: 144 to 146 °C; pIC50 (CB1 receptor [1]): 6.00; inhibition at 1 µM (CB1 receptor [2]): 83%; pIC50 (CB2 receptor): 6.00

**Q.** Which “CB1 (MVD) % inh at 1.0 μM” value (CB1 receptor [2]) does the source give for `CCOC(=O)CCCCn1cc(-c2nc(Cc3ccc4ccccc4c3)no2)c2ccccc21` [Compound 14, Ethyl 5-([3-(naphth-2-ylmethyl)-[1,2,4]-oxadiazole-5-yl]-1H-indol-1-yl)pentanoate] here?
**A.** The value was 42%.

**Q.** For `CCCCC/C=C\C/C=C\C/C=C\C/C=C\CCCC(=O)NCCO` [Anandamide, reference compound], which inhibition at 1 µM (CB1 receptor [2]) is on record?
**A.** Its inhibition at 1 µM is 84%.

**Q.** Which inhibition at 1 µM (CB1 receptor [2]) does the source give for `Cc1c(C(=O)c2cccc3ccccc23)c2cccc3c2n1[C@@H](CN1CCOCC1)CO3` [WIN-55212, WIN-55212-2, reference compound] here?
**A.** The inhibition at 1 µM was 100%.

**Q.** With `COc1ccc(Cc2noc(-c3cn(CCN4CCOCC4)c4ccccc34)n2)cc1` [Compound 6, 3-[3-(4-Methoxy-benzyl)-[1,2,4]oxadiazol-5-yl]-1-[2-(morpholin-4-yl)ethyl]-1H-indole] as the compound, how does the pIC50 (CB1 receptor [1]) read?
**A.** The pIC50 was 6.70.

**Q.** And the inhibition at 1 µM (CB1 receptor [2])?
**A.** Its inhibition at 1 µM is 39%.

**Q.** What about the pIC50 (CB2 receptor) of the same compound?
**A.** Its pIC50 is 5.55.

**Q.** For `Brc1ccc(Cc2noc(-c3cn(CCN4CCOCC4)c4ccccc34)n2)cc1` [Compound 7, 3-[3-(4-Bromo-benzyl)-[1,2,4]oxadiazol-5-yl]-1-[2-(morpholin-4-yl)ethyl]-1H-indole], which inhibition at 1 µM (CB1 receptor [2]) is on record?
**A.** The inhibition at 1 µM was 58%.

**Q.** With `c1ccc2cc(Cc3noc(-c4cn(CCN5CCCC5)c5ccccc45)n3)ccc2c1` [Compound 12, 3-[3-(naphth-2-ylmethyl)-[1,2,4]-oxadiazol-5-yl]-1-[2-(pyrolidin-1-yl)ethyl]-1H-indole] as the compound, how does the “CB1 (MVD) % inh at 1.0 μM” value (CB1 receptor [2]) read?
**A.** The value was 96%.

**Q.** With `CCCCCn1cc(-c2nc(Cc3ccccc3)no2)c2ccccc21` [Compound 8, 3-(3-Benzyl-[1,2,4]oxadiazol-5-yl)-1-pentyl-1H-indole] as the compound, how does the pIC50 (CB1 receptor [1]) read?
**A.** Its pIC50 is 8.22.

**Q.** What about the inhibition at 1 µM (CB1 receptor [2]) of the same compound?
**A.** The inhibition at 1 µM was 100%.

**Q.** And the pIC50 (CB2 receptor)?
**A.** The pIC50 was 6.40.

**Q.** Which inhibition at 1 µM (CB1 receptor [2]) does the source give for `c1ccc2cc(Cc3noc(-c4cn(CCN5CCOCC5)c5ccccc45)n3)ccc2c1` [Compound 13, 3-[3-(naphth-2-ylmethyl)-[1,2,4]-oxadiazol-5-yl]-1-[2-(morpholin-4-yl)ethyl]-1H-indole] here?
**A.** The inhibition at 1 µM was 54%.

**Q.** What does the source list for `c1ccc(CCc2noc(-c3cn(CCN4CCOCC4)c4ccccc34)n2)cc1` [Compound 9, 1-[2-(morpholin-4-yl)ethyl]-3-(3-phenethyl-[1,2,4]oxadiazol-5-yl)-1H-indole]?
**A.** inhibition at 1 µM (CB1 receptor [2]): 90%; pIC50 (CB2 receptor): 5.92

**Q.** Which “CB1 (MVD) % inh at 1.0 μM” value (CB1 receptor [2]) does the source give for `O=C(O)CCCCn1cc(-c2nc(Cc3ccc4ccccc4c3)no2)c2ccccc21` [Compound 15, 5-([3-(Naphth-2-ylmethyl)-[1,2,4]-oxadiazole-5-yl]-1H-indol-1-yl)pentanoic acid] here?
**A.** Its value is 54%.

**Q.** With `c1ccc(-c2ccc(-c3noc(-c4cn(CCN5CCOCC5)c5ccccc45)n3)cc2)cc1` [Compound 11, 3-[3-(Biphenyl)-[1,2,4]oxadiazole-5-yl]-1-[2-(morpholin-4-yl)ethyl]-1H-indole] as the compound, how does the pIC50 (CB1 receptor [1]) read?
**A.** The pIC50 was less than 5.00.

**Q.** What about the “CB1 (MVD) % inh at 1.0 μM” value (CB1 receptor [2]) of the same compound?
**A.** Its value is 11%.

**Q.** What about the pIC50 (CB2 receptor) of the same compound?
**A.** The pIC50 was less than 5.00.

**Q.** For `c1ccc(Cc2noc(-c3cn(CCN4CCCC4)c4ccccc34)n2)cc1` (as salt: tartrate) [Compound 1, 3-(3-Benzyl-[1,2,4]-oxadiazol-5-yl)-1-[2-(pyrrolidin-1-yl)ethyl]-1H-indole], which melting point is on record?
**A.** The melting point was 59 to 60 °C.

**Q.** Which inhibition at 1 µM (CB1 receptor [2]) does the source give for `Clc1ccccc1Cc1noc(-c2cn(CCN3CCOCC3)c3ccccc23)n1` [Compound 10, 3-[3-(2-Chlorobenzyl)-[1,2,4]-oxadiazol-5-yl]-1-[2-(morpholin-4-yl)ethyl]-1H-indole] here?
**A.** Its inhibition at 1 µM is 95%.
